# According to patent publication US20250051375A1, “ANTI-HIV COMPOUNDS” (Gilead Sciences, Inc., priority 2023, published 2025):
# Tests used:
# [1] = Intestinal S9 Assay (human GI S9); type: in vitro ADME; settings: 1.0 mg/mL S9 protein; for half-life at 2 μM: human, TRIS pH 7.4, read-out: Human GI S9 T½
# Outline: (§1)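 Pooled dog or human intestinal S9 at 1.0 mg/mL protein in TRIS buffer pH 7.4 with ZnCl2 and MgCl2; compound at 2 μM, sampled 0–120 min and quenched. Remaining parent by LC-MS peak area ratio; half-life from first-order exponential decline fit.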
# Solubility in FaSSIF = settings: 23 °C, pH 6.5, fassif, thermodynamic from solid
# Outline: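 Concentration measured by HPLC-UV after solid compound was dosed at 5 mg/mL into pH 6.5 fasted-state simulated intestinal fluid containing taurocholate and lecithin (4:1 molar) and vortexed.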
# HIV-1 IIIB strain = test: MT-4 HIV Wild Type Virus Infection Assay (IIIB Virus); type: cell-based; settings: Human immunodeficiency virus 1, IIIB, MT4, 120 h, MT-4 cells acutely infected with HIV-1 IIIB, 5 day incubation, Cell-titer glo
# Outline: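 MT-4 cells at 2×10^6 cells/ml in RPMI/10% FBS were acutely infected with HIV-1 IIIB for 1 h at 37° C, diluted 25× and added to serially diluted compounds. After 5 days at 37° C, viability read by CellTiter-Glo luminescence; EC50 from dose-response curves.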
# [2] = biological target: bovine intestinal alkaline phosphatase (Bos taurus (Bovine), UniProt P19111); test: BiALP: conversion by bovine intestinal alkaline phosphatase; type: in vitro ADME; settings: 2 μM substrate, 100 ng/mL iALP, Tris pH 7.8, 37° C., 60 minutes
# Outline: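 LC-MS (positive mode) quantified analyte/internal-standard peak area ratios, referenced to 2 μM parent product. This followed a 60 min, 37° C reaction of 2 μM substrate in Tris buffer pH 7.8 (1 mM MgCl2, 1 mM ZnCl2) containing 100 ng/mL iALP or buffer alone, run in triplicate.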
# [3] = Intestinal S9 Assay (dog GI S9); type: in vitro ADME; settings: dog, 1.0 mg/mL S9 protein, TRIS pH 7.4, read-out: Dog GI S9 T½
# Outline: as §1
# PBS Stability Assay = type: physicochemical; settings: phosphate buffered saline pH 7.4; for PBS T½: 2 μM; for half-life at 2 μM: buffer, pH 7.4, 2 μM, read-out: PBS T½
# Outline: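 Half-life derives from first-order exponential decline of % compound remaining, quantified by LC-MS analyte/internal-standard peak-area ratio. Compound (2 μM final) sat in pH 7.4 phosphate-buffered saline, with aliquots quenched into acidified acetonitrile containing labetalol from 0 to 120 min.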
# Chain of bovine intestinal alkaline phosphatase (P19111 20-506): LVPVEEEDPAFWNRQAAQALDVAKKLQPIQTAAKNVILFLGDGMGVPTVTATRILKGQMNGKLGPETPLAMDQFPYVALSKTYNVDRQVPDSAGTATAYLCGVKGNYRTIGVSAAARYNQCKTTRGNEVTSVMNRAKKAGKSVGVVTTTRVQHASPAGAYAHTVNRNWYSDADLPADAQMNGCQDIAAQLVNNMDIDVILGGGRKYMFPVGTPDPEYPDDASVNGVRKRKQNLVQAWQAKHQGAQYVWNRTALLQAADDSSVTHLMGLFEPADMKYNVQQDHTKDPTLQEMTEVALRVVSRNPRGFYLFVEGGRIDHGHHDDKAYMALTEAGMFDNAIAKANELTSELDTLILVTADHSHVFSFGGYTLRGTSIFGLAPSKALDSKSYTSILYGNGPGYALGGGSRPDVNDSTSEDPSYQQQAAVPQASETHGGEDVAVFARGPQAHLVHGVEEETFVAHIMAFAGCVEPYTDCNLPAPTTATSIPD
Compound,half-life at 2 μM [1],solubility at 2 h (Solubility in FaSSIF),EC50 (HIV-1 IIIB strain),[Compound] [2],half-life at 2 μM [3],PBS T½ (PBS Stability Assay),half-life at 2 μM (PBS Stability Assay),"Human GI S9 T½ ([1]; 2 μM, TRIS pH 7.4)"
COC(=O)N[C@H](C(=O)N[C@@H](Cc1ccc(C#Cc2cnc(N3CC4CCC(C3)N4C3COC3)nc2)cc1)[C@H](CN(Cc1c(F)cc(-c2ccn(C(F)F)n2)cc1F)NC(=O)[C@@H](NC(=O)OC)C(C)(C)C(F)(F)F)OC(=O)CC(C)(C)c1c(CC(=O)NCCS(=O)(=O)O)cc(C)cc1OP(=O)(O)O)C(C)(C)C(F)(F)F [Example 24],3.78 h,4660 µg/mL,130 nM,1717.9 nM,2.24 h,13.2 h,,
"COC(=O)N[C@H](C(=O)N[C@@H](Cc1ccc(C#Cc2cnc(N3CC4CCC(C3)N4C3COC3)nc2)cc1)[C@H](CN(Cc1c(F)cc(-c2ccn(C(F)F)n2)cc1F)NC(=O)[C@@H](NC(=O)OC)C(C)(C)C(F)(F)F)OC(=O)CC(C)(C)c1c(CC(=O)NCC(=O)NS(C)(=O)=O)cc(C)cc1OP(=O)(O)O)C(C)(C)C(F)(F)F [Example 27, (5S,10S,11S,14S)-8-(4-(1-(difluoromethyl)-1H-pyrazol-3-yl)-2,6-difluorobenzyl)-11-(4-((2-(8-(oxetan-3-yl)-3,8-diazabicyclo[3.2.1]octan-3-yl)pyrimidin-5-yl)ethynyl)benzyl)-3,6,13,16-tetraoxo-5,14-bis(1,1,1-trifluoro-2-methylpropan-2-yl)-2,17-dioxa-4,7,8,12,15-pentaazaoctadecan-10-yl 3-methyl-3-(4-methyl-2-(2-((2-(methylsulfonamido)-2-oxoethyl)amino)-2-oxoethyl)-6-(phosphonooxy)phenyl)butanoate]",2.46 h,4420 µg/mL,173 nM,2082.4 nM,1.82 h,,6.41 h,
"COC(=O)N[C@H](C(=O)N[C@@H](Cc1ccc(C#Cc2cnc(N3CC4CCC(C3)N4C3COC3)nc2)cc1)[C@H](CN(Cc1c(F)cc(-c2ccn(C(F)F)n2)cc1F)NC(=O)[C@@H](NC(=O)OC)C(C)(C)C(F)(F)F)OC(=O)CC(C)(C)c1c(CC(=O)NC/C(N)=N/O)cc(C)cc1OP(=O)(O)O)C(C)(C)C(F)(F)F [Example 28, (5S,10S,11S,14S)-8-(4-(1-(difluoromethyl)-1H-pyrazol-3-yl)-2,6-difluorobenzyl)-11-(4-((2-(8-(oxetan-3-yl)-3,8-diazabicyclo[3.2.1]octan-3-yl)pyrimidin-5-yl)ethynyl)benzyl)-3,6,13,16-tetraoxo-5,14-bis(1,1,1-trifluoro-2-methylpropan-2-yl)-2,17-dioxa-4,7,8,12,15-pentaazaoctadecan-10-yl 3-(2-(2-(((Z)-2-amino-2-(hydroxyimino)ethyl)amino)-2-oxoethyl)-4-methyl-6-(phosphonooxy)phenyl)-3-methylbutanoate]",,15 µg/mL,307 nM,2478.7 nM,11.4 h,13.2 h,,13.2 h
COC(=O)N[C@H](C(=O)N[C@@H](Cc1ccc(C#Cc2cnc(N3CC4CCC(C3)N4C3COC3)nc2)cc1)[C@H](CN(Cc1c(F)cc(-c2ccn(C(F)F)n2)cc1F)NC(=O)[C@@H](NC(=O)OC)C(C)(C)C(F)(F)F)OC(=O)CC(C)(C)c1c(CC(=O)N[C@@]2(C(=O)O)CCOC2)cc(C)cc1OP(=O)(O)O)C(C)(C)C(F)(F)F [Example 29],3.31 h,4970 µg/mL,213 nM,1878.7 nM,0.822 h,,8.62 h,
COC(=O)N[C@H](C(=O)N[C@@H](Cc1ccc(C#Cc2cnc(N3CC4CCC(C3)N4C3COC3)nc2)cc1)[C@H](CN(Cc1c(F)cc(-c2ccn(C(F)F)n2)cc1F)NC(=O)[C@@H](NC(=O)OC)C(C)(C)C(F)(F)F)OC(=O)CC(C)(C)c1c(CC(=O)N[C@]2(C(=O)O)CCOC2)cc(C)cc1OP(=O)(O)O)C(C)(C)C(F)(F)F [Example 30],4.11 h,5370 µg/mL,197 nM,1521.8 nM,1.17 h,,8.56 h,
